Assay results as given in patent publication US12037300B2, “Use of a cation source to prevent decomposition of (thio)phosphoric acid triamide urease inhibitors when a phosphorus-containing fertilizer is present” (BASF SE, priority 2016, dated 2024).

Key:
[1] = format: physicochemical; conditions: for decomposition of the urease inhibitors: after one day in the absence of TSP granules
From the text: The amount of the (thio)phosphoric acid triamide in a sample after a certain time period may be detected e.g. by HPLC using method DIN EN 16651. In order to exclude a destabilizing effect caused by the urea-containing fertilizer (3a), the (thio)phosphoric acid triamide (2) may be provided in combination with a stabilizing agent, which prevents decomposition caused by the fertilizer (3a). By comparing the decomposition of the (thio)phosphoric acid triamide (2) in the presence of the fertilizer (3a) only, with the decomposition of the (thio)phosphoric acid triamide (2) in the presence of the fertilizer mixture (3) comprising the fertilizer (3a) and the P-containing fertilizer (3b), the decomposition caused by the P-containing fertilizer (3b) can be determined.
Active ingredient content on urea was analyzed by HPLC (high-pressure liquid chromatography) using method DIN EN 16651. In case of bulk blends, the urea granules were separated from the other fertilizers before dissolving in water for HPLC analysis.
Urea granules treated with 0.04 wt.-% U1 active ingredient were mixed with TSP (Triple Super Phosphate) fertilizer granules. After mixing, the samples were stored in closed containers at room temperature. After 1 day of storage, the urea granules were separated from the TSP granules and the active ingredient (a.i.) concentration on the urea was analyzed by HPLC.

[2] = test system: urease, naturally present in the soil; test: Dräger test: ammonia emission from soil treated with fertilizer granules; format: biochemical; conditions: for influence of DAP on the performance of the tested urease inhibitors in urea/DAP blends on addition of the salt: 0.5 g salt, 3 weeks storage; for influence of DAP on the performance of the tested urease inhibitors in urea/DAP blends on addition of the salt / prevention of the degradation of U1: 10 g DAP; for prevention of the degradation of U1: 0.25 g salt, 18 days storage
From the text: Alternatively, the amount of the (thio)phosphoric acid triamide (2) in a sample after a certain time period may be determined indirectly by determining the urease inhibiting efficacy that is observable. The urease-inhibiting efficacy may be determined by the Dräger test as outlined in the Examples. The Dräger test is based on the determination of the concentration of ammonia gas that is set free from a soil sample being treated with a urea-containing fertilizer once a day. In general, a certain amount of ammonia is typically produced within a certain time period in a soil sample being treated with a urea-containing fertilizer due to the degradation of the urea-containing fertilizer caused by the urease, which is present in the soil. If the urea-containing fertilizer is provided in combination with a urease inhibitor such as a (thio)phosphoric acid triamide (2), the degradation of the urea-containing fertilizer is slowed down, so that a lower amount of ammonia will be produced in the same time period. On the other hand, if the (thio)phosphoric acid triamide (2) has decomposed to a certain extent, e.g. upon storage, the production of ammonia will be reduced only to a lower extent. The ammonia concentration measured after a certain time period may thus be correlated with the amount of the (thio)phosphoric acid triamide (2) in a sample. In order to exclude a destabilizing effect caused by the urea-containing fertilizer (3a), the (thio)phosphoric acid triamide (2) may be provided in combination with a stabilizing agent, which prevents decomposition caused by the fertilizer (3a). By comparing the decomposition of the (thio)phosphoric acid triamide (2) in the presence of the fertilizer (3a) only, with the decomposition of the (thio)phosphoric acid triamide (2) in the presence of the fertilizer mixture (3) comprising the fertilizer (3a) and the P-containing fertilizer (3b), the decomposition caused by the P-containing fertilizer (3b) can be determined.
For the Dräger test, 150 g Limburgerhof (Germany) soil is added to a 500 mL wide-mouth jar (9 cm diameter). Fertilizer granules are added and distributed evenly over the soil. The amount of fertilizer added corresponds to 115 mg of urea-N. The soil and fertilizer are then wetted with a fine spray of water (1 mL). Afterwards, the jar is closed with a lid. In the middle of the lid a hole is made in which an ammonia gas test tube (Dräger, Ammoniak 20/a-D 8101301, Diffusionsröhrchen) is placed. The urease, naturally present in the soil, hydrolyses urea into carbon dioxide and ammonia. The concentration of ammonia gas is read out once a day from the scale on the Dräger diffusion tube. All tests are performed in duplicate.
For the preparation of dry blend fertilizer mixtures, 10 g of urea treated with a urease inhibitor and 10 g of the other fertilizer are added to a small jar. After closing the jar, the fertilizers are mixed by vigorously shaking the jar. The closed jar is then stored at room temperature in a dark place. At the end of the storage time, urea granules are removed and tested using the Dräger test.

**Q.** For Urea, which “Remaining a.i. (%)” value ([1]; 24 h) is on record?
**A.** 100%

**Q.** With O=S(=O)([O-])[O-].[Mg+2] [magnesium sulfate, Magnesium sulfate anhydrous] as the compound, how does the “prevention of the degradation of U1 in fertilizer mixtures containing DAP” value ([2]; 0.25 g MgSO4, 10 g DAP, 1 month storage) read?
**A.** does prevent the degradation of U1

**Q.** And the “influence of DAP on the performance of the tested urease inhibitors in urea/DAP blends on addition of the salt” value [2]?
**A.** eliminates the influence of DAP

**Q.** What about the “time for which degradation of U1 in mixtures containing DAP is prevented” value ([2]; 1.25 wt.-% magnesium sulfate) of the same compound?
**A.** up to 5 months

**Q.** What about the “time for which degradation of U1 in mixtures containing phosphate fertilizers is prevented” value ([2]; 2.5 wt.-% magnesium sulfate) of the same compound?
**A.** up to 6 months

**Q.** And the “inhibition of the urease activity by the salt itself” value ([2]; 10 g urea, 0.25 g MgSO4, 1 month storage)?
**A.** does not inhibit the urease activity

**Q.** What about the “inhibition of the urease enzyme by the salt on its own” value ([2]; Example 5, 18 days storage) of the same compound?
**A.** does not inhibit the urease enzyme

**Q.** What about the “amount effective to avoid U1 degradation” value ([2]; after 5 days storage of the NP mixture (urea/DAP)) of the same compound?
**A.** ≤ 0.25 wt.-%

**Q.** With O.O.O=S(=O)([O-])[O-].[Ca+2] [calcium sulfate, Calcium sulfate dihydrate] as the compound, how does the “prevention of the degradation of U1” value [2] read?
**A.** effective in preventing the degradation of U1

**Q.** For CCCNP(N)(N)=S [NPPT, N-n-propylthiophosphoric acid triamide], which “decomposition of the urease inhibitors” value [1] is on record?
**A.** no decomposition

**Q.** For [Ca+2].[Cl-].[Cl-] [calcium chloride, Calcium chloride anhydrous], which “prevention of the degradation of U1” value [2] is on record?
**A.** effective in preventing the degradation of U1

**Q.** And the “influence of DAP on the performance of the tested urease inhibitors in urea/DAP blends on addition of the salt” value [2]?
**A.** eliminates the influence of DAP

**Q.** And the “prevention of the degradation of U1 active ingredient on wetblend fertilizers” value ([2]; 16-8-22 fertilizer treated with CaCl2 solution, 1 month storage)?
**A.** able to prevent the degradation of U1 active ingredient

**Q.** For CCCCNP(N)(N)=S [NBPT, N-n-butylthiophosphoric acid triamide], which “decomposition of the urease inhibitors” value [1] is on record?
**A.** no decomposition

**Q.** For O.O.O.O.O.O.O.O=S(=O)([O-])[O-].[Mg+2] [Magnesium sulfate heptahydrate], which “prevention of the degradation of U1” value [2] is on record?
**A.** does prevent the degradation of U1 as effectively as anhydrous magnesium sulfate
